In ChEMBL document CHEMBL3507680, “University of Dundee, Gates Library screen for HepG2 cell viability” one finds cytotoxicity data, which are given here for 91 compounds.

The nature of the series: Human HepG2 cell viability assay in 384 well format. It counts as toxicity, cell-based. On the set-up: dose 125 nL, time 70.5 hour; concentration not given beside the values. The note with it: HepG2 cells, read-out: Inhibition.

Structures are written as SMILES.

For `Cc1cccc(C(=O)N2CC[C@@H]3CN(c4ncccn4)CCO[C@@H]3C2)c1`, the cytotoxicity at 70.5 h is -9.91%.
Next, `CS(=O)(=O)NCc1nnc2n1CCN(Cc1nccs1)C2`: 5.64%; `O=C(Nc1cccnc1)[C@H]1C[C@@H]2CN(S(=O)(=O)C3CC3)C[C@H]1O2`: -4.16%.
Consider `CN(C)S(=O)(=O)N1C[C@H]2C[C@H](C(=O)Nc3cccnc3)[C@@H](C1)O2`, for which the cytotoxicity at 70.5 h is -8.64%.
Next, `CCCS(=O)(=O)N1C[C@H]2C[C@H](C(=O)Nc3cccnc3)[C@@H](C1)O2`: -4.17%; `CS(=O)(=O)NCc1nnc2n1CCN(Cc1ccc(F)cc1)C2`: -3.88%.
With `Cc1cccc(C(=O)N2C[C@@H]3OCCN(CCN4CCCC4)[C@@H]3C2)n1`, the cytotoxicity at 70.5 h was -7.28%.
With `CC1=N[C@@]2(CC[C@@H]3CN(S(=O)(=O)C4CC4)C[C@@H]32)C(=O)N1CC(C)C`, the cytotoxicity at 70.5 h was determined as 10.8%.
The figure for `Cc1nc(COC[C@@H]2CC[C@H]3[C@H](CCN3C(=O)C3CC3)O2)cs1` is -7.97%; for `CC1=N[C@@]2(CC[C@@H]3CN(S(C)(=O)=O)C[C@@H]32)C(=O)N1CC(C)C` it is -15.6%; for `CCN1C(=O)[C@]2(CC[C@@H]3CN(S(=O)(=O)CC(C)C)C[C@@H]32)N=C1C` it is -12.6%.
The figure for `Cc1nnc([C@@H]2CC[C@@H]3[C@@H](CCN3S(C)(=O)=O)O2)o1` is -10.9%; for `CN(C)CC(=O)N1Cc2nc(C(=O)NCc3ccccc3)oc2C1` it is 13%.
Next, `CCS(=O)(=O)N1C[C@H]2CC[C@@]3(N=C(C)N(CC(C)C)C3=O)[C@H]2C1`: -10.8%; `CC(=O)N1Cc2nc(C(=O)NCCc3cccnc3)oc2C1`: -6.92%; `CCN1Cc2c(C(=O)NC(C)C)ncn2-c2ccccc2S1(=O)=O`: -16.2%.
`CC(=O)N1CC[C@@H]2O[C@@H](COCc3csc(C)n3)CC[C@@H]21`: the cytotoxicity at 70.5 h is 12%.
The figure for `CCN1C(=O)CO[C@@H]2CN(C(=O)C3CCOCC3)C[C@H]21` is -6.45%; for `CN1CCN(Cc2cnc3n2CCN(C(=O)c2cscn2)C3)CC1` it is -3%; for `Cn1cc(CN2Cc3cn(C)nc3C(COCC3CC3)C2)cn1` (stereo unspecified) it is -5.92%.
Turning to `Cc1noc([C@H]2C[C@H]3CN(C(=O)C4CCOCC4)CC[C@@H]3O2)n1`, the cytotoxicity at 70.5 h was -12.9%.
Regarding `O=C1CC2(CCN(Cc3ncc[nH]3)CC2)CN1Cc1cc(F)cc(F)c1`, the cytotoxicity at 70.5 h is -3.59%.
Regarding `O=C(O)[C@@H]1CN(C(=O)CSCC2CC2)C[C@H]1c1ccncc1`, the cytotoxicity at 70.5 h came to 1.26%.
The figure for `COc1cccc2c1OCC(Cc1cc(C(N)=O)ccn1)C2` (stereo unspecified) is 26%.
Next, `CNCC(=O)N1CCCC1c1nc(C(C)C)no1` (stereo unspecified): -7.36%; `COc1cccc([C@H]2CN(C(=O)c3scc4c3CCCC4)C[C@@H]2N)c1`: -12%.
The figure for `COc1ccccc1CN(Cc1cccnc1)Cc1nccs1` is 9.35%; for `Cc1cc(C)n(CCCN(C)c2cc(C3CC3)ncn2)n1` it is -7.51%; for `Cn1cc(CN(C(=O)c2ccc(O)c(Cl)c2)C2CC2)cn1` it is -14.8%.
With `OC1(CN2CCCCC2)CCN(c2cccc(C(F)(F)F)n2)C1` (stereo unspecified), the cytotoxicity at 70.5 h was -14.1%.
Regarding `COCCNc1cc(-c2cccc(C(=O)O)c2C)c2cc[nH]c2n1`, the cytotoxicity at 70.5 h is -11.2%.
Next, `COc1ccccc1-c1ncc(CN2CCCC(CCC(N)=O)C2)s1` (stereo unspecified): -10.1%; `COc1ccc2cc(C3CN(C(=O)COC(C)C)CCO3)ccc2c1` (stereo unspecified): -2.81%; `Cc1ccc([C@@H]2CN(C(=O)c3ccon3)C[C@H]2NC(=O)C2CC2)cc1`: -0.162%.
The figure for `Cc1ncc(CC(=O)N2CCCCC2CCN2CCCC2)c(=O)[nH]1` (stereo unspecified) is -3.87%; for `CCNC(=O)c1ccnc(N2CCCC(COc3ccccc3C)C2)c1` (stereo unspecified) it is -21.9%.
With `CCNc1ncc(C(=O)N[C@@H](C)[C@H](O)c2ccccc2)cn1`, the cytotoxicity at 70.5 h was -2.67%.
Next, `O=C(CCC1CCN(C(=O)c2csnn2)CC1)NCc1cccc(Cl)c1`: 7.85%; `CC(CCCC(C)(C)O)Nc1ccc(-c2nccn2C)nn1` (stereo unspecified): 0.443%.
The figure for `CNC(=O)C1CCN(c2ncnc3c2CCN(C(=O)C2CC2)C3)C1` (stereo unspecified) is -5.76%; for `CC(C)c1cc(C(=O)NCCn2nnc3ccccc32)no1` it is 41.3%.
The figure for `CCN(CC)CC(=O)NCc1cccnc1-n1cnc2ccccc21` is -3.36%; for `COc1ccc2c(c1)C(C(=O)N(C)CCn1ccnc1C)CC(=O)N2` (stereo unspecified) it is -3.22%; for `CCOc1ccccc1-n1c(C2CCC2)n[nH]c1=O` it is -18.9%.
With `Cc1noc(C)c1C1CCCN1CCC(=O)N1CCc2ccccc2C1` (stereo unspecified), the cytotoxicity at 70.5 h was -13.3%.
For the compound `NCC1CCCN(c2nc(-c3ccccc3)nc3c2CCNCC3)C1` (stereo unspecified), the cytotoxicity at 70.5 h came out at 5.19%.
Turning to `COCC1CCN(C(=O)c2cn(Cc3ccccc3C(F)(F)F)nn2)C1` (stereo unspecified), the cytotoxicity at 70.5 h was -21.7%.
Take `CC(=O)N1CCCN(C(=O)Nc2ccccc2N2CCOC2=O)CC1`: the cytotoxicity at 70.5 h is -4.99%.
On to `O=C(CC1C=CCC1)N1CCc2ncnc(NCc3ccon3)c2CC1` (stereo unspecified), for which the cytotoxicity at 70.5 h came to 23.6%.
The figure for `CCCN1CCC(N2CCN(c3cc(C)nc(C)c3)CC2)CC1` is 5.6%; for `O=C1CCC2(CCCN(C(=O)c3ccc[nH]3)C2)CN1CCc1c[nH]cn1` (stereo unspecified) it is 16.9%; for `N#Cc1c(N)nc2c(c1-c1cnc(N3CCCC3)nc1)COCC2` it is -5.19%.
Consider `CCn1ncnc1C(C)NC(=O)Cc1cc2c(cc1Cl)OCCO2` (stereo unspecified), for which the cytotoxicity at 70.5 h came to 1.43%.
Next, `COCCNS(=O)(=O)c1cccc2c1CN(C(=O)c1ccoc1)CC2`: -10.7%; `Cc1ccc(CN(C)Cc2nc3ccc(F)cc3[nH]2)cn1`: -0.998%; `Cc1cc(C2CCCN2Cc2ccc(C(=O)Nc3nccs3)cc2)on1` (stereo unspecified): -2.76%.
In the case of `Cn1ccnc1CCC1CCCCN1Cc1nccn1C` (stereo unspecified), the cytotoxicity at 70.5 h is 14.9%.
Next, `CC(C)CC(C)NC1CCN(c2cccc(-c3cscn3)c2)CC1` (stereo unspecified): -8.68%; `COc1ccc(CCCN2C(=O)O[C@@H]3CN(C4CCOCC4)C[C@@H]32)cc1`: -3.64%.
Next, `CSCC(=O)N(C)Cc1noc(-c2ccccc2)n1`: -9.48%; `CCN1CC(CN(C)Cc2nc(-c3cccc(C)c3)oc2C)CC1=O` (stereo unspecified): 28.2%; `Cc1nc2cc(NC(=O)Cn3ncc(N4CCCC4)cc3=O)ccc2s1`: -4.89%.
The figure for `Cc1c[nH]c(CN2CCOC(c3ccc(F)cc3)C2)c(C)c1=O` (stereo unspecified) is -3.86%; for `O=C(CC(F)(F)F)N1CCCC(c2nccn2Cc2ccncc2)C1` (stereo unspecified) it is -6.22%; for `CC(C)CN1CC(c2nc(-c3cccc(F)c3)c[nH]2)CC1=O` (stereo unspecified) it is -7.31%.
As to `CC(=O)N1CCOC(Cc2cccc(C(F)(F)F)c2)C1` (stereo unspecified), the cytotoxicity at 70.5 h is -4.91%.
Consider `Cc1csc(N2CCN(C3CCc4ccccc4C3)CC2)n1` (stereo unspecified), for which the cytotoxicity at 70.5 h worked out at 13%.
Consider `CN(C)Cc1csc(-c2nccn2CCc2cccnc2)c1`, for which the cytotoxicity at 70.5 h was -8%.
The figure for `COc1ccc(CN2CC[C@@H](O)[C@@H]2Cc2cnn(C)c2)cc1` is 21.7%.
In the case of `O=C([C@H]1C[C@H]2OCC[C@H]2N(CCc2ccccc2)C1)N1CCCO1`, the cytotoxicity at 70.5 h was -3.87%.
The figure for `Cn1cc(C[C@H]2[C@H](O)CCN2Cc2ccc(F)cc2)cn1` is 4.14%.
Next, `COc1ccc(CN2CC[C@H](O)[C@@H]2Cc2cnn(C)c2)cc1`: -11.4%; `Cc1cncc(C(=O)N2CC[C@@]3(C[C@H](NS(C)(=O)=O)CCO3)C2)c1`: -7.39%.
Turning to `O=C(C1CCOCC1)N1CCc2onc(COc3cccnc3)c2C1`, the cytotoxicity at 70.5 h is 0.0469%.
On to `O=C(c1ccncc1F)N1CCc2onc(COc3cccnc3)c2C1`, for which the cytotoxicity at 70.5 h is -6.64%.
The figure for `O=S(=O)(c1cccs1)N1CCCC2(COCCN(c3cccnc3)C2)C1` (stereo unspecified) is -1.65%; for `O=C(N1CCCC1)N1CCc2onc(COc3cccnc3)c2C1` it is -3.27%; for `Cn1cc(C[C@H]2[C@H](O)CCN2CC2CCOCC2)cn1` it is -6.28%.
For the compound `O=C([C@H]1C[C@H]2OCC[C@H]2N(CC2CCOCC2)C1)N1CCCCO1`, the cytotoxicity at 70.5 h was -7.91%.
Next, `CC1=N[C@@]2(CC[C@@H]3CN(CC(C)C)C[C@@H]32)C(=O)N1CC(C)C`: -13.7%.
The figure for `O=C(NCC1OCCc2cn(CC3CCOCC3)nc21)c1ccncc1` (stereo unspecified) is -10.6%.
Next, `COCCNC(=O)[C@H]1C[C@@H]2CCN(Cc3nccs3)C[C@H]2O1`: -13.5%; `O=C(NC1CC1)[C@H]1C[C@H]2OCC[C@H]2N(Cc2ccc3ccccc3n2)C1`: -4.59%.
Take `Cc1ccc(O[C@@H]2C[C@H]3CN(C(=O)Cc4ccccn4)CCN3C2)cc1`: the cytotoxicity at 70.5 h is 17.9%.
The figure for `Cc1occc1C(=O)N1C[C@@H]2OCCN(CCN3CCCC3)[C@@H]2C1` is -3.12%.
Consider `CN(C)[C@@H]1CCN(CC2CC2)[C@H]1Cc1cnn(C)c1`, for which the cytotoxicity at 70.5 h came out at 0.964%.
`CN1CCN(C2COC3(CCN(Cc4cccs4)CC3)C2)CC1` (stereo unspecified): the cytotoxicity at 70.5 h is 4.27%.
`c1csc(CN2CCCC3(COCCN(c4cnccn4)C3)C2)c1` (stereo unspecified): the cytotoxicity at 70.5 h was -6.31%.
The figure for `O=C(Cc1ccccn1)N1CCN2C[C@H](Oc3cncnc3)C[C@H]2C1` is -7.37%; for `Cc1cc(CN2CC[C@H]3C[C@H](C(=O)Nc4cccnc4C)O[C@@H]3C2)no1` it is 12.4%; for `Cc1ncccc1NC(=O)[C@H]1C[C@@H]2CCN(Cc3ccsc3)C[C@H]2O1` it is -13.8%.
